In US5869336A, “Recombinant enzymatically active calpain expressed in a baculovirus system” (Cephalon, Inc., priority 1997, dated 1999):
Where two headings read alike, the source gives them in different places. Where a SMILES comes first, the peptide text is derived from it. [ ]: non-standard residue; d: D form. The star is where a group is joined. Sta = CC(C)C[C@H](N)[C@@H](O)CC(=O)O; Isovaleryl = CC(C)CC(=O)*; Nle = CCCC[C@H](N)C(=O)O

Columns and labels:
[1] = imidazole-HCl/EGTA buffer, pH 7.3; used for approximating [Ca2+]; read-out: Kd of EGTA for calcium; cited from earlier work
[2] = molecular target: T1, recombinant human calpain I (Homo sapiens, UniProt P07384); experiment: Inhibitor profile: inhibition of Succ-Leu-Tyr-MNA hydrolysis by recombinant calpain I; type: biochemical; settings: for difference in IC50 values with respect to the known calpain inhibitors / inhibition of activity: recombinant enzyme
T1 construct: the 2153 bp fragment containing the entire human 80 kDa calpain I cDNA; made in house; host or cells: Spodoptera frugiperda Sf21 cells, recombinant baculovirus (AcNPV-hCANPI-2-5, or coinfection with AcNPV-hCANP30-5 and AcNPV-hCANPI80-5)
T1 sequence (P07384 2-714): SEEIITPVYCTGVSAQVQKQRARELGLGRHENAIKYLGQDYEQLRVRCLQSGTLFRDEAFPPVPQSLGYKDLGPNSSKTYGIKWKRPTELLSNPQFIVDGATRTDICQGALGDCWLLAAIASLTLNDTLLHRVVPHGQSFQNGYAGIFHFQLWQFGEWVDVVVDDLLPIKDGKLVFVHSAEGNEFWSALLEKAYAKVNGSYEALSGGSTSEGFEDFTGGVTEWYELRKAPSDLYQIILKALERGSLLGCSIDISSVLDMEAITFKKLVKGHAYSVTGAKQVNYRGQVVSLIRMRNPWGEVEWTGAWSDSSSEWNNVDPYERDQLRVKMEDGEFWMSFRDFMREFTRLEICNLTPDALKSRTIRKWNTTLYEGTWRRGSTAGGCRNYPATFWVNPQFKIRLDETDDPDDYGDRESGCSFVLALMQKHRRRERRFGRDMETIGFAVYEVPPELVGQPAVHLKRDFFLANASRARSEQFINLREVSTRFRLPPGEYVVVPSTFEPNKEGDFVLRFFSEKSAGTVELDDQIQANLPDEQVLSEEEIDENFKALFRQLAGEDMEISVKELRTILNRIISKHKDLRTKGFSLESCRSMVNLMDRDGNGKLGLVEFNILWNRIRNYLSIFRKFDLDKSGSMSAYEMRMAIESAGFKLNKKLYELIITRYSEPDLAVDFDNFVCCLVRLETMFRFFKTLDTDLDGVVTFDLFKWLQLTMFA
T1 sequence (P04632 1-268 partner): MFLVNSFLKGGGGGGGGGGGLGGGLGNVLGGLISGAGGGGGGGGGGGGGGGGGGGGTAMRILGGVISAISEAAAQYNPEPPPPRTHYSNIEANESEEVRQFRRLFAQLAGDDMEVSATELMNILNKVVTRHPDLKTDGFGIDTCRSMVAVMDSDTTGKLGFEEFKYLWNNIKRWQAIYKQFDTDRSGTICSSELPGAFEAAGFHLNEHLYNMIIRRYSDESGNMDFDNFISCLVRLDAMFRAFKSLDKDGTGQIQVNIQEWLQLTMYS
Method: (§1) To evaluate inhibitor sensitivities, stocks (40 times concentrated) of each inhibitor to be tested were prepared in 100% anhydrous DMSO and 5 μl of each inhibitor preparation were aliquoted into each of three wells of a 96 well plate. Dilutions of each enzyme preparation were made into assay buffer (i.e., 50 mM Tris, 50 mM NaCl, 1 mM EDTA, 1 mM EGTA, and 5 mM β-mercaptoethanol, pH 7.5 including 0.2 mM Succ-Leu-Tyr-MNA) and 175 μl of each dilution aliquoted into the same wells containing the independent inhibitor stocks as well as to positive control wells containing 5 μl DMSO, but no inhibitor. To start the reaction, 20 μl of 50 mM CaCl2 in assay buffer was added to all wells of the plate, excepting three, which were used as background signal baseline controls. Substrate hydrolysis was monitored every 5 minutes for a total of 30 minutes. […] The rate of hydrolysis was determined as the change in fluorescence units per the 10 minute time period between 5 and 15 minutes. At each inhibitor concentration tested, the percent inhibition was determined as the percent decrease in the rate of substrate hydrolysis in the presence of inhibitor versus the rate in its absence. […] Prototypic inhibitors of serine (PMSF) and aspartic proteases (pepstatin A) were also included in this determination.

[3] = molecular target: T2, native calpain I (Homo sapiens, UniProt P07384); experiment: Inhibitor profile: inhibition of Succ-Leu-Tyr-MNA hydrolysis by native calpain I; type: biochemical; settings: for difference in IC50 values with respect to the known calpain inhibitors / inhibition of activity: native enzyme
T2 construct: Native and recombinant enzymatically active calpain I were compared; from tissue; host or cells: human erythrocytes (red blood cells)
T2 sequence (P07384 2-714): T1 sequence (P07384 2-714)
T2 sequence (P04632 1-268 partner): T1 sequence (P04632 1-268 partner)
Method: as §1

[4] = tested on: neurons; settings: rats, clamping both carotid arteries and lowering arterial blood pressure; cited from earlier work
[5] = tested on: recombinant 80 kDa subunit of calpain I; experiment: Enzymatic activity of independently expressed 80 kDa subunit (Succ-Leu-Tyr-AMC); type: biochemical, human; settings: 12.5 μM calpain inhibitor I; 33 μg unfractionated extract; FIG. 8
Method: Sf21 cells were again seeded in 24 well plates at 1.5×10^5 cells/cm^2 and infected with either wild-type virus, coinfected with both AcNPV-hCANP30-5 and AcNPV-hCANPI80-5 (MOI of 5 for each virus), or infected with AcNPV-hCANPI-2-5 (MOI=5.7). The intracellular proteins were harvested at 40 hours after infection with 100 μl/well of the following lysis buffer: 50 mM Tris-HCl, pH 7.5, 50 mM NaCl, 1 mM EDTA, 1 mM EGTA, 5 mM β-mercaptoethanol, 0.1% Triton-100, followed by a 10 minutes centrifugation at 14,000×g at 4° C. to pellet the nuclei and some membranes. The in vitro enzyme activity of 20 μl of each extract (12.5-20 μg of total protein) was measured using the synthetic peptide substrate succinyl-leucine-tyrosine-aminomethyl coumarin (Succ-Leu-Tyr-AMC) at a 1 mM concentration with and without the addition of 5 mM CaCl2 following the procedure of Sasaki et al., J. Biol. Chem., 259:12489-12494 (1984), incorporated herein by reference. […]
To determine the relative activity of the recombinantly produced 80 kDasubunit, the enzymatic activity of the subunit was examined in unfractionated extracts from Sf21 cells infected with AcNPV-hCANPI80-5. […] The same amount of enzyme activity for both the recombinant 80 kDa subunit and the recombinant calpain was then run on SDS-PAGE and the amount of each was qualitatively determined by immunoblot analysis as described in Example 4 above. […]

[6] = molecular target: T1, recombinant human calpain I; experiment: Calcium-dependent protease activity (Succ-Leu-Tyr-AMC), recombinant calpain in Sf21 cell extracts; type: biochemical; settings: 12.5 μM calpain inhibitor I; recombinant, coinfected or AcNPV-hCANPI-2-5; FIGS. 5c, 5d
Method: (§2) Sf21 cells were again seeded in 24 well plates at 1.5×10^5 cells/cm^2 and infected with either wild-type virus, coinfected with both AcNPV-hCANP30-5 and AcNPV-hCANPI80-5 (MOI of 5 for each virus), or infected with AcNPV-hCANPI-2-5 (MOI=5.7). The intracellular proteins were harvested at 40 hours after infection with 100 μl/well of the following lysis buffer: 50 mM Tris-HCl, pH 7.5, 50 mM NaCl, 1 mM EDTA, 1 mM EGTA, 5 mM β-mercaptoethanol, 0.1% Triton-100, followed by a 10 minutes centrifugation at 14,000×g at 4° C. to pellet the nuclei and some membranes. The in vitro enzyme activity of 20 μl of each extract (12.5-20 μg of total protein) was measured using the synthetic peptide substrate succinyl-leucine-tyrosine-aminomethyl coumarin (Succ-Leu-Tyr-AMC) at a 1 mM concentration with and without the addition of 5 mM CaCl2 following the procedure of Sasaki et al., J. Biol. Chem., 259:12489-12494 (1984), incorporated herein by reference. The activity obtained was compared with the enzyme activity of 2 μg of partially-purified native human calpain I produced according to the method of Siman et al., supra.
(§3) The activity in the presence of calcium was also measured with the addition of 12.5 μM calpain inhibitor I following the procedure disclosed in Sasaki et al., supra. The results are depicted in FIGS. 5a-d. In FIGS. 5a-d, open circles represent activity without calcium present. […]

[7] = tested on: native human calpain I; experiment: Calcium-dependent protease activity (Succ-Leu-Tyr-AMC), native calpain I; type: biochemical; settings: 12.5 μM calpain inhibitor I; native human calpain I; FIG. 5a
Method: as §2, §3

[8] = tested on: rat Na,K-ATPase; settings: enzyme from insect cells; cited from earlier work
[9] = molecular target: T1, recombinant human calpain I; experiment: Calcium activation of recombinant calpain (Succ-Leu-Tyr-MNA hydrolysis); type: biochemical; settings: pH 7.3, 1 mM Succ-Leu-Tyr-MNA, approximation based on Kd of EGTA, read-out: concentration of calcium required to give 1/2 Vmax
Method: (§4) To determine the calcium concentration required for enzyme activity, tests were performed essentially as described by Kitahara et al., J. Biochem., 95:1759-1766 (1984). First, enzyme preparations were dialyzed overnight against 110 mM imidazole-HCl/1 mM EGTA buffer at pH 7.3 containing 5 mM β-mercaptoethanol. Ten-fold concentrated Ca^2+ /EGTA buffers were prepared by adding varying amounts of CaCl2 to the imidazole/EGTA buffer. Twenty μl of each buffer was put into three wells of a 96 well plate. Dilutions of dialyzed enzyme were made into the imidazole/EGTA buffer containing 1 mM Succ-Leu-Tyr-MNA and 180 μl of each preparation were added to the wells containing the various Ca/EGTA buffers. Substrate hydrolysis was measured every 5 minutes for 30 minutes. The 1/2 Vmax was determined as the rate of substrate hydrolysis which was 50% of the maximal rate achieved in the presence of the varying amounts of calcium. […] The [Ca^2+ ] activation profiles for both the native and recombinant enzymes are virtually identical. In FIG. 9, open squares with interior open circles represent recombinant human calpain I (rhCANPI). Shaded squares with interior open circles represent native human calpain I (nhCANPI).

[10] = tested on: native human calpain I; experiment: Calcium activation of native calpain (Succ-Leu-Tyr-MNA hydrolysis); type: biochemical; settings: pH 7.3, 1 mM Succ-Leu-Tyr-MNA, approximation based on Kd of EGTA, read-out: concentration of calcium required to give 1/2 Vmax
Method: as §4

[11] = tested on: cells; settings: cited from earlier work
[12] = Recombinant calpain, 0.2 mM Succ-Leu-Tyr-MNA, rate between 5 and 15 minutes, read-out: IC50
[13] = Native calpain, 0.2 mM Succ-Leu-Tyr-MNA, rate between 5 and 15 minutes, read-out: IC50

Compound: O=C(O)CN(CCOCCOCCN(CC(=O)O)CC(=O)O)CC(=O)O [EGTA]
- Kd [1]: 5.5 µM

Compound: O=S(=O)(F)Cc1ccccc1 [PMSF, phenylmethylsulfonyl fluoride]
- IC50 [2]: > 1000 µM
- difference in IC50 values with respect to the known calpain inhibitors [2]: 5-6 fold order of magnitude
- inhibition of activity [2]: insignificant inhibition
- IC50 [3]: > 1000 µM
- difference in IC50 values with respect to the known calpain inhibitors [3]: 5-6 fold order of magnitude
- inhibition of activity [3]: insignificant inhibition

Compound: CC(C)CC(=O)N[C@H](C(=O)N[C@H](C(=O)N[C@@H](CC(C)C)[C@@H](O)CC(=O)N[C@@H](C)C(=O)N[C@@H](CC(C)C)[C@@H](O)CC(=O)O)C(C)C)C(C)C [Pepstatin A] (Isovaleryl-VV[Sta]A[Sta]-OH)
- IC50 [2, 12]: > 10 µM
- difference in IC50 values with respect to the known calpain inhibitors [2]: 5-6 fold order of magnitude
- inhibition of activity [2]: insignificant inhibition
- IC50 [3, 13]: > 10 µM
- difference in IC50 values with respect to the known calpain inhibitors [3]: 5-6 fold order of magnitude
- inhibition of activity [3]: insignificant inhibition

Compound: CC(C)C[C@H](NC(=O)OCc1ccccc1)C(=O)N[C@@H](CC(C)C)C(=O)N[C@@H](Cc1ccccc1)C(=O)C[S+](C)C [Z--Leu--Leu--Phe--CH2 S(+)Me2 Br(-), Z-Leu-Leu-Phe-CH2 S(+)Me2 Br(-)]
- IC50 [2, 12]: 0.008 µM
- IC50 [3, 13]: 0.014 µM

Compound: CCCC[C@@H](C=O)NC(=O)[C@H](CC(C)C)NC(=O)OCc1ccccc1 [Z--Leu--Nle--H, Z-Leu-Nle-H]
- IC50 [2, 12]: 0.01 µM
- IC50 [3, 13]: 0.014 µM

Compound: CCNC(=O)C(=O)[C@H](Cc1ccccc1)NC(=O)[C@H](CC(C)C)NC(=O)OCc1ccccc1 [Z--Leu--Phe--CONHEt, Z-Leu-Phe-CONHEt]
- IC50 [2]: 0.034 µM
- IC50 [3]: 0.056 µM

Compound: CCCC[C@@H](C=O)NC(=O)[C@H](CC(C)C)NC(=O)[C@H](CC(C)C)NC(C)=O [calpain inhibitor I] (Ac-Leu-Leu-[Nle]-aldehyde)
- protection of neurons against ischemic and hypoxic damage [4]: protected neurons against ischemic and hypoxic damage
- inhibition of activity [5]: completely inhibited
- inhibition of calcium-dependent substrate hydrolysis [6]: also inhibited
- inhibition of calcium-dependent substrate hydrolysis [7]: inhibited

Compound: Na,K-ATPase: functional rat Na,K-ATPase expressed using the baculovirus expression system
- activity relative to enzyme from dog kidney outer medulla [8]: 20-25%

Compound: calcium
- EC50 [9]: 14 µM
- EC50 [10]: 15 µM

Compound: calpastatin
- uptake by cells [11]: not readily taken up by cells
